Measured values published in publication PMC7738869, “A novel STAT3 inhibitor W2014-S regresses human non-small cell lung cancer xenografts and sensitizes EGFR-TKI acquired resistance” (Theranostics, 2021).
Several values for one entry are separate records, joined by “and”; a condition that tells them apart may be missing. Identical values can stand only once. Like-named read-outs stand apart in the source and are kept apart here.

Key:
PC-9 cells = assay: Cell apoptosis assay (Annexin V-FITC/PI flow cytometry), PC-9; type: cell-based, human; details: PC-9, 1.0 μM, 72 h
Procedure: (§1) Briefly, aliquots of 2 × 10^5 cells were seeded into 6-well plates and incubated for 24 h at 37 °C. […] After trypsinization and gently washing cells once with medium, the cells were washed twice with cold PBS. The precipitation was resuspended by 400 μL of 1 × binding buffer, and then resuspended cells were transferred into new 1.5 mL EP tubes. Then 3 μL of Annexin V-FITC and 5 μL of propidium iodide were added to the resuspended cells with further incubation at room temperature for 15 min in the dark. The analysis was done on Guava easyCyte (USA) and FlowJo 7.6 software.

JAK2 = assay: Western blot of phosphorylated and total JAK2 in A549 and PC-9 cells; type: cell-based, human; details: A549 and PC-9, 0-3 μM, 24 h
Procedure: Cells or tumor tissue were lysed with RIPA buffer (Beyotime, Shanghai, China) supplemented with protease inhibitors (Beyotime, Shanghai, China) and phosphatase inhibitors (Bimake, USA). Lysates were denatured by heating for 5 min at 99 °C and loaded on 4-10% SDS-polyacrylamide gel electrophoresis. Then the proteins were transferred to polyvinylidene fluoride (PVDF) membranes (Millipore, USA). The membranes were blocked and probed with primary antibodies and secondary HPR-conjugated antibodies. At last the membranes were detected by chemiluminescence (Tanon, Shanghai, China). For co-immunoprecipitation experiments, 293T cells were plated and grew to about 80% confluency, then co-transfected with plasmids of HA-STAT3 and Flag-STAT3 using Lipofectamine 2000. After 24 h, cells were treated with different concentrations of W2014-S for following 24 h, and stimulated with IL-6 (100 ng/mL) for 1 h. Cells were lysed with IP RIPA buffer (Beyotime, Shanghai, China) supplemented with protease inhibitors (Beyotime, Shanghai, China) and phosphatase inhibitors (Bimake, America), and lysates were cultured with Anti-flag Affinity Gel (B23102, Bimake, USA) overnight at 4 ℃. The gel was washed by PBST for three times and added 1×loading buffer and denatured by heating for 5 min at 99 ℃. Then the proteins were resolved on SDS-PAGE, transferred to PVDF membranes and analysed with immunoblotting.

A549 cells = assay: Cell apoptosis assay (Annexin V-FITC/PI flow cytometry), A549; type: cell-based, human; details: A549, 1.0 μM, 72 h
Procedure: as §1

[1] = test system: PDX (TM00192/LG0567F, lung adenocarcinoma); assay: Lung cancer PDX tumor xenografts in nude mice; type: in vivo
Procedure: To establish cell xenograft model, nude mice were injected subcutaneously with A549 cells (2×10^6) or PC-9/GR cells (4×10^6). For PDX model, the PDX sample was from The Jackson Laboratory. The model ID is TM00192/LG0567F. For this patient, the primary site is lung, the initial and diagnosis and final diagnosis is lung adenocarcinoma. The stage/grade is AJCC IB/grade 3. […] The sample type is surgical resection. […] The tumor sample were cut into approximately 1 mm^3, and the tissue was pushed under skin of mice by TROCHAR. When tumor volumes reached approximately 100 mm^3, mice were randomly distributed into groups of 7 mice. […] Tumor size was measured every two days by vernier caliper. The average tumor volume in each group was calculated based on the equation for a prolate spheroid (tumor volume = (short-diameter)^2 × large-diameter × π / 6 ) and expressed in mm^3.

Pharmacokinetic study = type: in vivo, SD rats; details: for MRT inf: read-out: MRTINF_obs
Procedure: W2014-S was given to SD rats (male, 230-260g, n = 6) by gavage and intravenous administration. The rats were fasted for 12 h before administration and remained fasting for 2 h. For oral gavage, W2014-S was dissolved in DMSO/0.5% HPMC (5/95, v/v/), and W2014-S was dissolved in DMSO/EtOH/PEG300/0.9% NaCl (5/5/40/50, v/v/v/v) for intravenous administration. The pharmacokinetic (PK) profiles were next evaluated in SD rats.

**Q.** With C[C@H](Oc1ccc(-c2nc3nc(C4=CCN(C(=O)OC(C)(C)C)CC4)ccc3[nH]2)cc1)c1ccccc1 [W2014-S] as the molecule, how does the apoptosis (PC-9 cells) read?
**A.** induced apoptosis

**Q.** What about the “protein level of phosphorylated JAK2 and total JAK2” value (JAK2) of the same molecule?
**A.** little or no effect

**Q.** And the apoptosis (A549 cells)?
**A.** induced apoptosis

**Q.** And the “level of pY705-STAT3 in tumor (western blot)” value ([1]; PDX)?
**A.** significantly suppressed the level of pY705-STAT3

**Q.** And the “body weights and signs of toxicity during treatment” value ([1]; PDX mice, 5 or 15 mg/kg daily, 21 d)?
**A.** no significant changes in body weights, or obvious signs of toxicity

**Q.** What about the growth of xenografts ([1]; PDX, i.p. 5 or 15 mg/kg daily, 21 d) of the same molecule?
**A.** significantly inhibited growth

**Q.** And the “expression of Ki-67 in tumor (IHC)” value ([1]; PDX, vs vehicle)?
**A.** significantly reduced

**Q.** And the “Concentration in rat plasma, individual animals 4-6” value (from here on “Concentration in rat plasma”) (Pharmacokinetic study; i.v. 3 mg/kg, 0.05 h, 3 mg/kg)?
**A.** 335 ng/mL and 339 ng/mL

**Q.** What about the “Concentration in rat plasma” value (Pharmacokinetic study; i.v. 3 mg/kg, 0.25 h, 3 mg/kg) of the same molecule?
**A.** 145 ng/mL and 134 ng/mL

**Q.** And the “Concentration in rat plasma” value (Pharmacokinetic study; i.v. 3 mg/kg, 0.75 h, 3 mg/kg)?
**A.** 66.9 ng/mL and 80.1 ng/mL

**Q.** And the “Concentration in rat plasma” value (Pharmacokinetic study; i.v. 3 mg/kg, 2.00 h, 3 mg/kg)?
**A.** 17.6 ng/mL and 22.6 ng/mL

**Q.** And the “Concentration in rat plasma” value (Pharmacokinetic study; i.v. 3 mg/kg, 4.00 h, 3 mg/kg)?
**A.** 3.60 ng/mL and 5.00 ng/mL

**Q.** And the “Concentration in rat plasma” value (Pharmacokinetic study; i.v. 3 mg/kg, 8.00 h, 3 mg/kg)?
**A.** 1.10 ng/mL and 2.60 ng/mL and 2.20 ng/mL

**Q.** And the “Concentration in rat plasma” value (Pharmacokinetic study; i.v. 3 mg/kg, 24.0 h, 3 mg/kg)?
**A.** 1.30 ng/mL and 1.20 ng/mL

**Q.** And the concentration at 0.05 h (Pharmacokinetic study; male, SD, rat, plasma, iv, 3 mg/kg, i.v. 3 mg/kg, 0.05 h, read-out: Concentration in rat plasma, individual animals 4-6)?
**A.** 454 ng/mL

**Q.** What about the concentration at 0.05 h (Pharmacokinetic study; male, SD, rat, plasma, iv, 3 mg/kg, i.v. 3 mg/kg, 0.05 h, read-out: Concentration in rat plasma, mean) of the same molecule?
**A.** 376 ng/mL

**Q.** What about the concentration at 0.25 h (Pharmacokinetic study; male, SD, rat, plasma, iv, 3 mg/kg, i.v. 3 mg/kg, 0.25 h, read-out: Concentration in rat plasma, individual animals 4-6) of the same molecule?
**A.** 159 ng/mL

**Q.** What about the concentration at 0.25 h (Pharmacokinetic study; male, SD, rat, plasma, iv, 3 mg/kg, i.v. 3 mg/kg, 0.25 h, read-out: Concentration in rat plasma, mean) of the same molecule?
**A.** 146 ng/mL

**Q.** What about the concentration at 0.75 h (Pharmacokinetic study; male, SD, rat, plasma, iv, 3 mg/kg, i.v. 3 mg/kg, 0.75 h, read-out: Concentration in rat plasma, individual animals 4-6) of the same molecule?
**A.** 59.3 ng/mL

**Q.** And the concentration at 0.75 h (Pharmacokinetic study; male, SD, rat, plasma, iv, 3 mg/kg, i.v. 3 mg/kg, 0.75 h, read-out: Concentration in rat plasma, mean)?
**A.** 68.8 ng/mL

**Q.** What about the concentration at 2 h (Pharmacokinetic study; male, SD, rat, plasma, iv, 3 mg/kg, i.v. 3 mg/kg, 2.00 h, read-out: Concentration in rat plasma, individual animals 4-6) of the same molecule?
**A.** 13.4 ng/mL

**Q.** What about the concentration at 2 h (Pharmacokinetic study; male, SD, rat, plasma, iv, 3 mg/kg, i.v. 3 mg/kg, 2.00 h, read-out: Concentration in rat plasma, mean) of the same molecule?
**A.** 17.9 ng/mL

**Q.** And the concentration at 4 h (Pharmacokinetic study; male, SD, rat, plasma, iv, 3 mg/kg, i.v. 3 mg/kg, 4.00 h, read-out: Concentration in rat plasma, individual animals 4-6)?
**A.** 2.9 ng/mL

**Q.** And the concentration at 4 h (Pharmacokinetic study; male, SD, rat, plasma, iv, 3 mg/kg, i.v. 3 mg/kg, 4.00 h, read-out: Concentration in rat plasma, mean)?
**A.** 3.83 ng/mL

**Q.** And the concentration at 8 h (Pharmacokinetic study; male, SD, rat, plasma, iv, 3 mg/kg, i.v. 3 mg/kg, 8.00 h)?
**A.** 1.97 ng/mL

**Q.** What about the concentration at 24 h (Pharmacokinetic study; male, SD, rat, plasma, iv, 3 mg/kg, i.v. 3 mg/kg, 24.0 h, read-out: Concentration in rat plasma, individual animals 4-6) of the same molecule?
**A.** 0.9 ng/mL

**Q.** What about the concentration at 24 h (Pharmacokinetic study; male, SD, rat, plasma, iv, 3 mg/kg, i.v. 3 mg/kg, 24.0 h, read-out: Concentration in rat plasma, mean) of the same molecule?
**A.** 1.13 ng/mL

**Q.** And the half-life (Pharmacokinetic study; male, SD, rat, plasma, iv, 3 mg/kg, i.v. 3 mg/kg, individual animals 4-6)?
**A.** 15.3 h

**Q.** And the AUC(0-inf) (Pharmacokinetic study; male, SD, rat, plasma, iv, 3 mg/kg, rat, i.v. 3 mg/kg, individual animals 4-6, read-out: AUCINF_obs)?
**A.** 228 ng·h/mL

**Q.** And the AUC(0-t) (Pharmacokinetic study; male, SD, rat, plasma, iv, 3 mg/kg, rat, i.v. 3 mg/kg, individual animals 4-6, read-out: AUClast)?
**A.** 208 ng·h/mL

**Q.** And the clearance (Pharmacokinetic study; male, SD, rat, plasma, iv, 3 mg/kg, rat, i.v. 3 mg/kg, individual animals 4-6, read-out: CL_obs)?
**A.** 219 mL/min/kg

**Q.** And the MRT inf (Pharmacokinetic study; male, SD, rat, plasma, iv, 3 mg/kg, rat, i.v. 3 mg/kg, individual animals 4-6)?
**A.** 5.79 h

**Q.** What about the MRT inf (Pharmacokinetic study; male, SD, rat, plasma, iv, 3 mg/kg, rat, i.v. 3 mg/kg, mean) of the same molecule?
**A.** 6.3 h

**Q.** What about the concentration at 0.25 h (Pharmacokinetic study; male, SD, rat, plasma, po, 10 mg/kg, p.o. 10 mg/kg, 0.25 h, read-out: Concentration in rat plasma, mean) of the same molecule?
**A.** 19.6 ng/mL

**Q.** And the concentration at 0.5 h (Pharmacokinetic study; male, SD, rat, plasma, po, 10 mg/kg, p.o. 10 mg/kg, 0.50 h)?
**A.** 22.5 ng/mL

**Q.** And the concentration at 1 h (Pharmacokinetic study; male, SD, rat, plasma, po, 10 mg/kg, p.o. 10 mg/kg, 1.00 h)?
**A.** 16.1 ng/mL

**Q.** And the concentration at 2 h (Pharmacokinetic study; male, SD, rat, plasma, po, 10 mg/kg, p.o. 10 mg/kg, 2.00 h, read-out: Concentration in rat plasma, individual animals 1-3)?
**A.** 5.7 ng/mL

**Q.** And the concentration at 2 h (Pharmacokinetic study; male, SD, rat, plasma, po, 10 mg/kg, p.o. 10 mg/kg, 2.00 h, read-out: Concentration in rat plasma, mean)?
**A.** 7.23 ng/mL
